This assay relates to HT29 intrarenal xenograft, nude mice, tumor weight change. Put plainly: NCI In Vivo Anticancer Drug Screen. Data for tumor model HT29;CX-1 Human Adenocarcinoma (MER+) (intrarenal inoculation) in NU/NU BALB/C (nude) mice. The settings on record: endpoint: mean tumor weight change, higher = larger tumour. The protocol: The antitumor activity of compounds was measured in mice bearing transplantable tumors. Survival or tumor size were measured and the results are expressed as the measurement made in the treated group (T) divided by the measurement made in the vehicle treated control group (C). The tumor model used in this assay is HT29;CX-1 Human Adenocarcinoma (MER+) (intrarenal inoculation) in NU/NU BALB/C (nude) mice

Where [1] appears, read: dose: 100.0 mg/kg/injection, schedule: Q04DX004 (sc), vehicle: saline.
Where [2] appears, read: dose: 100.0 mg/kg/injection, schedule: Q01DX010 (sc), vehicle: Klucel (hydroxypropylcellulose) (HPC).
Where [3] appears, read: dose: 75.0 mg/kg/injection, schedule: Q04DX004 (sc), vehicle: suspension in saline.
[4] abbreviates: dose: 150.0 mg/kg/injection, schedule: Q04DX004 (sc), vehicle: suspension in saline.
Where [5] appears, read: dose: 75.0 mg/kg/injection, schedule: Q04DX004 (sc), vehicle: saline with Tween-80.
Where [6] appears, read: dose: 150.0 mg/kg/injection, schedule: Q04DX004 (sc), vehicle: saline with Tween-80.
[7] abbreviates: dose: 300.0 mg/kg/injection, schedule: Q04DX004 (sc), vehicle: saline with Tween-80.
Setting [8] is: dose: 600.0 mg/kg/injection, schedule: Q04DX004 (sc), vehicle: saline with Tween-80.
Where [9] appears, read: dose: 50.0 mg/kg/injection, schedule: Q01DX010 (sc), vehicle: saline.
Where [10] appears, read: dose: 100.0 mg/kg/injection, schedule: Q01DX010 (sc), vehicle: saline.

Each structure is given as a SMILES string. Several values for one entry are separate records, joined by “and”; a condition that tells them apart may be missing. Equal values may be shown once. Inconclusive results are not listed.

As for `CC(C)CCC(=O)c1ccoc1`, the T/C by setting is: (dose: 0.75 mg/kg/injection, schedule: Q01DX010 (ip), vehicle: saline with Tween-80) 85 % of control; (dose: 1.5 mg/kg/injection, schedule: Q01DX010 (ip), vehicle: saline with Tween-80) 87 % of control; (dose: 3.0 mg/kg/injection, schedule: Q01DX010 (ip), vehicle: saline with Tween-80) 75 % of control and 91 % of control; (dose: 6.0 mg/kg/injection, schedule: Q01DX010 (ip), vehicle: saline with Tween-80) 74 % of control and 94 % of control.

As for `CCOC(=O)C(N)CSC(=O)NC` (centres undefined), the T/C by setting is: (dose: 150.0 mg/kg/injection, schedule: Q04DX004 (ip), vehicle: saline) 108 % of control; (dose: 150.0 mg/kg/injection, schedule: Q04DX004 (sc), vehicle: saline) 58 % of control; (dose: 300.0 mg/kg/injection, schedule: Q04DX004 (ip), vehicle: saline) 103 % of control; (dose: 300.0 mg/kg/injection, schedule: Q04DX004 (sc), vehicle: saline) 75 % of control; (dose: 600.0 mg/kg/injection, schedule: Q04DX004 (ip), vehicle: saline) 111 % of control; (dose: 600.0 mg/kg/injection, schedule: Q04DX004 (sc), vehicle: saline) 59 % of control.

As for `Nc1ccn([C@@H](C=O)O[C@@H](C=O)CO)c(=O)n1`, the T/C was 117 % of control (dose: 50.0 mg/kg/injection, schedule: Q04DX004 (sc), vehicle: saline); 71 % of control under setting [1]; 113 % of control (dose: 200.0 mg/kg/injection, schedule: Q04DX004 (sc), vehicle: saline).

As for `C/C=C/C=C/c1cc2cc3c(c(O)c2c(=O)[nH]1)C1(CC3)C(O)=c2c(=O)c3c(=O)cc(OC)c(=O)c=3c(=O)c2=C1O` (centres undefined), the T/C was 75 % of control (dose: 6.0 mg/kg/injection, schedule: Q04DX004 (sc), vehicle: DMSO); 77 % of control (dose: 12.0 mg/kg/injection, schedule: Q04DX004 (sc), vehicle: DMSO); 61 % of control (dose: 24.0 mg/kg/injection, schedule: Q04DX004 (sc), vehicle: DMSO); 58 % of control (dose: 48.0 mg/kg/injection, schedule: Q04DX004 (sc), vehicle: DMSO).

Turning to `Cn1cnc([N+](=O)[O-])c1S(=O)(=O)NCN1CCOCC1`, the T/C under setting [2] is 80 % of control.

As to `COC(=O)C[C@](O)(CCC(C)(C)O)C(=O)O[C@@H]1C(OC)=C[C@]23CCCN2CCc2cc4c(cc2[C@H]13)OCO4`, the T/C runs as follows: (dose: 0.31 mg/kg/injection, schedule: Q04DX004 (sc), vehicle: saline) 68 % of control; (dose: 0.63 mg/kg/injection, schedule: Q04DX004 (sc), vehicle: saline) 84 % of control; (dose: 1.25 mg/kg/injection, schedule: Q04DX004 (sc), vehicle: saline) 103 % of control; (dose: 2.5 mg/kg/injection, schedule: Q04DX004 (sc), vehicle: saline) 86 % of control.

For the molecule `CCCCNCCCNCCCNC(=O)c1csc(-c2csc(CCNC(=O)C(NC(=O)C(C)C(O)C(C)NC(=O)C(NC(=O)c3nc(C(CC(N)=O)NCC(N)C(N)=O)nc(N)c3C)C(OC3OC(CO)C(O)C(O)C3OC3OC(CO)C(O)C(OC(N)=O)C3O)c3cnc[nH]3)C(C)O)n2)n1` (centres undefined), the T/C (dose: 8.0 mg/kg/injection, schedule: Q01DX010 (sc), vehicle: saline) was 30 % of control and the T/C (dose: 32.0 mg/kg/injection, schedule: Q01DX010 (sc), vehicle: saline) was -32 % of control.

As to `COc1nc(=O)n(C2C=CC(=O)O2)cc1F` (centres undefined), the T/C was 52 % of control under setting [3] and 122 % of control under setting [4].

For `COc1cc(O)c2c(O)c3c(c4c2c1[C@]1(C4)C(C)=CCCC1(C)C)[C@H](O)[C@@]1(O)CC(=O)C(C(N)=O)=C(O)[C@@]1(O)C3=O`, the T/C by setting is: (dose: 9.4 mg/kg/injection, schedule: Q04DX004 (ip), vehicle: saline with Tween-80) 59 % of control; (dose: 18.8 mg/kg/injection, schedule: Q04DX004 (ip), vehicle: saline with Tween-80) 87 % of control; (dose: 37.5 mg/kg/injection, schedule: Q04DX004 (ip), vehicle: saline with Tween-80) 101 % of control.

In the case of `CC1(C)CC2(C)OC2C2(C1)N=NC(=Nc1ccccc1)O2` (centres undefined), the T/C is, setting by setting: under setting [5], 16 % of control; under setting [6], 124 % of control; under setting [7], 89 % of control; under setting [8], 69 % of control.

As to `O=C1C=CC(n2cc(F)c(=O)[nH]c2=O)O1` (centres undefined), the T/C is 87 % of control (dose: 37.5 mg/kg/injection, schedule: Q04DX004 (sc), vehicle: suspension in saline); 88 % of control under setting [3]; 47 % of control under setting [4].

With `O=c1[nH]c2c(ccc3cnccc32)c2c1CCC2`, the T/C by setting is: (dose: 225.0 mg/kg/injection, schedule: Q04DX004 (sc), vehicle: suspension in saline) 67 % of control; (dose: 450.0 mg/kg/injection, schedule: Q04DX004 (sc), vehicle: suspension in saline) 67 % of control; (dose: 900.0 mg/kg/injection, schedule: Q04DX004 (sc), vehicle: suspension in saline) 73 % of control; (dose: 1800.0 mg/kg/injection, schedule: Q04DX004 (sc), vehicle: suspension in saline) 53 % of control.

As for `CN(C)N=Nc1ccc(S(N)(=O)=O)cc1`, the T/C by setting is: under setting [2], 81 % of control; (dose: 200.0 mg/kg/injection, schedule: Q01DX010 (sc), vehicle: Klucel (hydroxypropylcellulose) (HPC)) 104 % of control.

For the molecule `O=[N+]([O-])c1ccc(N2CCOCC2)c2c1no[n+]2[O-]`, the T/C under setting [5] was 88 % of control, the T/C under setting [6] was 116 % of control, the T/C under setting [7] is 156 % of control and the T/C under setting [8] was 83 % of control.

For the molecule `COc1cc(C)c2c(c1C=O)Oc1c(c(C)c(O)c3c1C(O)OC3=O)OC2=O` (centres undefined), the T/C was 42 % of control under setting [9]; 81 % of control under setting [10]; 38 % of control (dose: 400.0 mg/kg/injection, schedule: Q01DX010 (sc), vehicle: saline).

Regarding `CC12CCC3C(CCC4CC(OC(=O)Cc5ccc(N(CCCl)CCCl)cc5)CCC43C)C1CCC(=O)N2` (centres undefined), the T/C by setting is: (dose: 12.5 mg/kg/injection, schedule: Q04DX004 (sc), vehicle: saline with Tween-80) 99 % of control; (dose: 25.0 mg/kg/injection, schedule: Q04DX004 (sc), vehicle: saline with Tween-80) 109 % of control; (dose: 50.0 mg/kg/injection, schedule: Q04DX004 (sc), vehicle: saline with Tween-80) 77 % of control; (dose: 100.0 mg/kg/injection, schedule: Q04DX004 (sc), vehicle: saline with Tween-80) 38 % of control.

Consider `C[C@]12CCC(=O)C(O)=C1CC[C@@H]1[C@@H]2CC[C@]2(C)C(=O)CC[C@@H]12`, for which the T/C (dose: 150.0 mg/kg/injection, schedule: Q04DX004 (ip), vehicle: Klucel (hydroxypropylcellulose) (HPC)) is 84 % of control; the T/C (dose: 300.0 mg/kg/injection, schedule: Q04DX004 (ip), vehicle: Klucel (hydroxypropylcellulose) (HPC)) is 94 % of control; the T/C (dose: 600.0 mg/kg/injection, schedule: Q04DX004 (ip), vehicle: Klucel (hydroxypropylcellulose) (HPC)) is 67 % of control; the T/C (dose: 1200.0 mg/kg/injection, schedule: Q04DX004 (ip), vehicle: Klucel (hydroxypropylcellulose) (HPC)) was 84 % of control.

As for `O=C(CCCN1CCC(C(O)c2ccc(F)cc2)CC1)c1ccc(F)cc1` (centres undefined), the T/C reads like this: (dose: 12.5 mg/kg/injection, schedule: Q04DX004 (ip), vehicle: saline with Tween-80) 52 % of control; (dose: 25.0 mg/kg/injection, schedule: Q04DX004 (ip), vehicle: saline with Tween-80) 71 % of control; (dose: 50.0 mg/kg/injection, schedule: Q04DX004 (ip), vehicle: saline with Tween-80) 106 % of control; (dose: 100.0 mg/kg/injection, schedule: Q04DX004 (ip), vehicle: saline with Tween-80) 43 % of control.

`CC[As](=O)(O)CC`: the T/C under setting [1] is 61 % of control.

Regarding `C[N+](C)(C)c1ncnc2nc[nH]c12`, the T/C by setting is: under setting [9], 111 % of control; under setting [10], 83 % of control; (dose: 200.0 mg/kg/injection, schedule: Q01DX010 (sc), vehicle: saline) 29 % of control.

Take `CC1(C)OCC2OC=CC(=O)C2O1` (centres undefined): the T/C is, setting by setting: under setting [6], 111 % of control and 89 % of control; under setting [8], 82 % of control and 92 % of control.

`CC(=O)Oc1[nH]c(=O)c2cccc3c2c1CCC3`: the T/C by setting is: under setting [6], 207 % of control; under setting [7], 105 % of control.

These data come from PubChem BioAssay AID208 (DTP/NCI, 2004).
